Experimental data taken from US20220056019A1, “FARNESOID X RECEPTOR AGONISTS AND USES THEREOF” (Metacrine, Inc., priority 2018, published 2022).

Biological target: T1, hFXR (Homo sapiens, UniProt Q96RI1)
T1 construct: expressed in transfected cells; host or cells: CV-1 cells
T1 sequence (Q96RI1 1-486): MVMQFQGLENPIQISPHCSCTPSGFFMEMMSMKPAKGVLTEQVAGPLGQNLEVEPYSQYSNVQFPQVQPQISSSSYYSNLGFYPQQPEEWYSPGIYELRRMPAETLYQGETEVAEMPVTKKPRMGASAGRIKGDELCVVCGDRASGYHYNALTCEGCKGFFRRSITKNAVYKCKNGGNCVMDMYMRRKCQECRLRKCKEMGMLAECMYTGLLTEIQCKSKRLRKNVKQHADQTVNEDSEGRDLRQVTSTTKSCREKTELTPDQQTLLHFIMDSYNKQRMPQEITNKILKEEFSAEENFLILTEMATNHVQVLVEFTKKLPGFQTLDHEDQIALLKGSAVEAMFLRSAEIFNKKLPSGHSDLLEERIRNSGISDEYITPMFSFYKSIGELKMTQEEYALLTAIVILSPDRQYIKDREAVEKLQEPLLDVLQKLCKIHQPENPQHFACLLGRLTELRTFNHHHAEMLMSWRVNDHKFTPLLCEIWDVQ
T1 sequence (P19793 1-462 partner): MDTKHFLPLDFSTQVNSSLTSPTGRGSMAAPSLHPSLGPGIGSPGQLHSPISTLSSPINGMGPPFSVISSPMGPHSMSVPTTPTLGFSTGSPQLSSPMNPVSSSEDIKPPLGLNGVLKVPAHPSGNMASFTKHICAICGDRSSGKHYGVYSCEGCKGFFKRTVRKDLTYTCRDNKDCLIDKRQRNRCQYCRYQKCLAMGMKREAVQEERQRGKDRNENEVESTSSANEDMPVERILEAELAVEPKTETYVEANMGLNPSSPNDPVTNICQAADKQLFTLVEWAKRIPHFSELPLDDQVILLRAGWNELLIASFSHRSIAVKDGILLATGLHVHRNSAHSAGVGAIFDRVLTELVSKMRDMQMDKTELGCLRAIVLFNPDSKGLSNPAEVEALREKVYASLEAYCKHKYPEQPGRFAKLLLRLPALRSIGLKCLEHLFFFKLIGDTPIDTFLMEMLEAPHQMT
Test: In Vitro FXR Assay (TK): TK-ECRE-luc reporter in transfected CV-1 cells
Assay type: cell-based
Conditions: 18 hrs incubation, luminescence
How it was run: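 Reporter gene assay: CV-1 cells co-expressing hFXR, hRXR, TK-ECRE-luc and pCMX-YFP after overnight transfection in charcoal-stripped serum. Treatment with serially diluted compounds lasted 18 hrs at 37 °C, followed by cell lysis and a luminescence measurement.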

EC50 | Structure (SMILES)
50 to 1000 nM | CCc1ncc(-c2ccnc(N(CC34CCC(c5ccc(OC)c(C)c5)(CC3)CC4)C(=O)[C@H]3CC[C@H](OC(=O)N4CC(CO)C4)CC3)c2)s1 [Compound 4.37, 4-((4-(2-Ethylthiazol-5-yl)pyridin-2-yl)((4-(4-methoxy-3-methylphenyl)bicyclo[2.2.2]octan-1-yl)methyl)carbamoyl) cyclohexyl3-(hydroxymethyl)azetidine- trans-1-carboxylate]
≤ 50 nM | COc1ccc([C@H]2CC[C@H](CN(c3cc(-c4coc(C5CC5)n4)ccn3)C(=O)[C@H]3CC[C@H](OC(=O)NCC(C)(C)O)CC3)CC2)cc1C [Compound 2.02, trans-4-((4-(2-Cyclopropyloxazol-4-yl)pyridin-2-yl)((trans-4-(4-methoxy-3-methylphenyl)cyclohexyl)methyl)carbamoyl) cyclohexyl(2-hydroxy-2-methylpropyl)carbamate]
≤ 50 nM | COc1ccc(C23CCC(CN(c4cc(-n5cnc(C(C)C)c5)ccn4)C(=O)[C@H]4CC[C@H](OC(=O)N5CC(O)C5)CC4)(CC2)CC3)cc1C [Compound 23.13, 4-((4-(4-Isopropyl-1H-imidazol-1-yl)pyridin-2-yl)((4-(4-methoxy-3-methylphenyl)bicyclo[2.2.2]octan-1-yl)methyl)carbamoyl)cyclohexyl trans-3-hydroxyazetidine-1-carboxylate]
≤ 50 nM | COc1ccc([C@H]2CC[C@H](CN(c3cccc(-c4cnn(C(C)C)c4)c3)C(=O)[C@H]3CC[C@H](NC(=O)OC4CCOCC4)CC3)CC2)cc1C [Compound 6.06, Tetrahydro-2H-pyran-4-yl (trans-4-((3-(1-isopropyl-1H-pyrazol-4-yl)phenyl)((trans-4-(4-methoxy-3-methylphenyl)cyclohexyl)meth-yl)carbamoyl)cyclohexyl)carbamate]
≤ 50 nM | COc1ccc(C23CCC(CN(c4cc(-c5cnn(C(C)C)c5)ccn4)C(=O)[C@H]4CC[C@H](OC(=O)N5CC(O)C5)CC4)(CC2)CC3)cc1C [Compound 4, 4-((4-(1-Isopropyl-1H-pyrazol-4-yl)pyridin-2-yl)((4-(4-methoxy-3-methylphenyl)bicyclo[2.2.2]octan-1-yl)methyl)carbamoyl)cyclohexyl 3-hydroxyazetidine-trans-1-carboxylate]
≤ 50 nM | COc1ccc([C@H]2CC[C@H](CN(c3cccc(-n4cnc(C5CC5)n4)c3)C(=O)[C@H]3CC[C@H](OC(=O)N4CC(O)C4)CC3)CC2)cc1C [Compound 5, trans-4-((3-(3-Cyclopropyl-1H-1,2,4-triazol-1-yl)phenyl)((trans-4-(4-methoxy-3-methylphenyl)cyclohexyl)methyl)carbamoyl)cyclohexyl 3-hydroxyazetidine-1-carboxylate]
≤ 50 nM | COc1ccc(C23CCC(CN(c4cc(-c5cnn(C(C)C)c5)ccn4)C(=O)[C@H]4CC[C@H](OC(=O)NC(C)(C)CO)CC4)(CC2)CC3)cc1C [Compound 4.46, 4-((4-(1-Isopropyl-1H-pyrazol-4-yl)pyridin-2-yl) ((4-(4-methoxy-3-methylphenyl)bicyclo [2.2.2]octan-1-yl)methyl)carbamoyl)cyclohexyl trans-(1-hydroxy-2-methylpropan-2-yl) carbamate]
≤ 50 nM | COc1ccc(C23CCC(CN(c4cccc(-c5cnn(C6(C)CCC6)c5)n4)C(=O)[C@H]4CC[C@H](OC(=O)N5CC(O)C5)CC4)(CC2)CC3)cc1C [Compound 25.24, 4-(((4-(4-Methoxy-3-methylphenyl)bicyclo[2.2.2]octan-1-yl)methyl)(6-(1-(1-methylcyclobutyl)-1H-pyrazol-4-y)pyridin-2-yl)carbamoyl)cyclohexyl trans-3-hydroxyazetidine-1-carboxylate]
≤ 50 nM | COc1ccc([C@H]2CC[C@H](CN(c3cccc(-c4cnn(C(C)C)c4)c3)C(=O)[C@H]3CC[C@H](NC(=O)C(C)C)CC3)CC2)cc1C [Compound 10.06, trans-4-Isobutyramido-N-(3-(1-isopropyl-1H-pyrazol-4-yl)phenyl)-N-((trans-4-(4-methoxy-3-methylphenyl)cyclohexyl)methyl) cyclohexanecarboxamide]
50 to 1000 nM | COc1ccc([C@H]2CC[C@H](CN(c3cccc(-c4cnn(C(C)C)c4)c3)C(=O)[C@H]3CC[C@H](NC(=O)CC4CCOCC4)CC3)CC2)cc1C [Compound 10.03, trans-N-(3-(1-Isopropyl-1H-pyrazol-4-yl)phenyl)-N-((trans-4-(4-methoxy-3-methylphenyl)cyclohexyl)methyl)-4-(2-(tetrahydro-2H-pyran-4-yl)acetamido)cyclohexanecarboxa-mide]
50 to 1000 nM | COc1ccc([C@H]2CC[C@H](CN(c3cccc(-c4cnn(C(C)C)c4)c3)C(=O)[C@H]3CC[C@H](CNC(=O)OC(C)C)CC3)CC2)cc1C [Compound 12.05, Isopropyl (((trans)-4-((3-(1-isopropyl-1H-pyrazol-4-yl)phenyl)(((trans)-4-(4-methoxy-3-methylphenyl)cyclohexyl)methyl)carbamoyl)cyclohexyl)methyl)car-bamate]
≤ 50 nM | COc1ccc(C23CCC(CN(c4cc(-c5cnn(C6CCCC6)c5)ccn4)C(=O)[C@H]4CC[C@H](OC(=O)N5CC(O)C5)CC4)(CC2)CC3)cc1C [Compound 23.07, 4-((4-(1-Cyclopentyl-1H-pyrazol-4-yl)pyridin-2-yl)((4-(4-methoxy-3-methylphenyl)bicyclo[2.2.2]oc-tan-1-yl)methyl)carbamoyl)(trans-cyclohexyl) 3-hydroxy-azetidine-1-carboxylate]
≤ 50 nM | COc1ccc(C23CCC(CN(c4cc(-c5cnn(C(C)C)c5)ncn4)C(=O)[C@H]4CC[C@H](OC(=O)N5CC(CO)C5)CC4)(CC2)CC3)cc1C [Compound 23.20, 4-((6-(1-Isopropyl-1H-pyrazol-4-yl)pyrimidin-4-yl)((4-(4-methoxy-3-methylphenyl)bi-cyclo[2.2.2]octan-1-yl)methyl)carbamoyl)(trans-cyclohexyl) 3-(hydroxymethyl)azetidine-1-carboxylate]
≤ 50 nM | COc1ccc([C@H]2CC[C@H](CN(c3cccc(-c4cnn(C(C)C)c4)c3)C(=O)[C@H]3CC[C@H](OC(=O)NCC(C)(C)O)CC3)CC2)cc1C#N [Compound 5.09, trans-4-((((trans)-4-(3-Cyano-4-methoxyphenyl)cyclohexyl)methyl)(3-(1-isopropyl-1H-pyrazol-4-yl)phenyl)carbamoyl) cyclohexyl(2-hydroxy-2-methylpropyl)carbamate]
≤ 50 nM | COc1ncc([C@H]2CC[C@H](CN(c3cc(-c4cnn(C(C)C)c4)ccn3)C(=O)[C@H]3CC[C@H](OC(=O)N4CC(N(C)C)C4)CC3)CC2)cc1Cl [Compound 1.08, trans-4-((((trans)-4-(5-Chloro-6-methoxypyridin-3-yl)cyclohexyl)methyl)(4-(1-isopropyl-1H-pyrazol-4-yl)pyridin-2-yl)carbamoyl)cyclohexyl 3-(dimethylamino)azetidine-1-carboxylate]
≤ 50 nM | COc1ccc(C23CCC(CN(c4cncc(-c5cnn(C(C)C)c5)c4)C(=O)[C@H]4CC[C@H](OC(=O)N5CC(O)C5)CC4)(CC2)CC3)cc1C [Compound 25, 4-((5-(1-Isopropyl-1H-pyrazol-4-yl)pyridin-3-yl)((4-(4-methoxy-3-methylphenyl)bicyclo[2.2.2]octan-1-yl)methyl)carbamoyl)cyclohexyl trans-3-hydroxyazetidine-1-carboxylate]
≤ 50 nM | COc1ccc(C23CCC(CN(c4cc(-c5cnn(C(C)C)c5)ccn4)C(=O)[C@H]4CC[C@H](NC(=O)OCCO)CC4)(CC2)CC3)cc1C [Compound 7, (trans)-2-Hydroxyethyl (4-((4-(1-isopropyl-1H-pyrazol-4-yl)pyridine-2-yl)((4-(4-methoxy-3-methylphenyl)bicyclo[2.2.2]octan-1-yl)methyl)carbamoyl)cyclohexyl)carbamate]
≤ 50 nM | COc1ccc([C@H]2CC[C@H](CN(c3cccc(-c4cnn(C(C)C)c4)c3)C(=O)[C@H]3CC[C@H](NC(=O)OCCO)CC3)CC2)cc1C [Compound 6.03, 2-Hydroxyethyl (trans-4-((3-(1-isopropyl-1H-pyrazol-4-yl)phenyl)((trans-4-(4-methoxy-3-methylphenyl)cyclohexyl)meth-yl)carbamoyl)cyclohexyl)carbamate]
≤ 50 nM | COc1ccc(C23CCC(CN(c4cc(-c5coc(C(C)C)n5)ccn4)C(=O)[C@H]4CC[C@H](OC(=O)NC5COC5)CC4)(CC2)CC3)cc1C [Compound 23.04, 4-((4-(2-Isopropyloxazol-4-yl)pyridin-2-yl)((4-(4-methoxy-3-methylphenyl)bicyclo[2.2.2]octan-1-yl)methyl)carbamoyl)(trans-cyclohexyl)oxetan-3-ylcarbamate]
